Source: ChEMBL document CHEMBL1127906, “Design and synthesis of novel muscarinic agonists containing the 1,2,4-triazine ring as an ester bioisostere” (Bioorg Med Chem Lett, 1994)

Assays:
[1] = target: Muscarinic acetylcholine receptor; assay: Ability to inhibit [3H]quinuclidinyl benzilate(QNB) binding in rat cerebral cortex, activity expressed as IC50.; type: tissue-based
[2] = target: Muscarinic acetylcholine receptor (Rattus norvegicus) (UniProt P08482+P08483+P08485+P08911+P10980); assay: Ratio of IC50 values for inhibition of QNB and OXO-M was measured for efficacy of the compound
[3] = target: Muscarinic acetylcholine receptor; assay: Ability to inhibit [3H]oxotremorine-M (OXO-M) binding in rat cerebral cortex; type: tissue-based

SMILES | IC50 [1] [µM] | Ratio [2] | IC50 [3] [µM]
Cc1nncc([C@H]2CN3CC[C@H]2C3)n1 | 0.41 | 105 | 0.0039
CSc1nncc([C@H]2CN3CC[C@H]2C3)n1 | 1.3 | 4.5 | 0.29
c1nncc([C@H]2CN3CC[C@H]2C3)n1 | 1.4 | 370 | 0.0038
COc1nncc([C@H]2CN3CC[C@H]2C3)n1 | 2.4 | 17 | 0.14
Nc1nncc([C@H]2CN3CC[C@H]2C3)n1 | 0.99 | 460 | 0.0021
Cc1noc([C@H]2CN3CC[C@H]2C3)n1 | 1 | 360 | 0.0028
Cc1nncc(C2CN3CCC2CC3)n1 (stereo not given) | 0.225 | 56 | 0.004
CCc1nncc([C@H]2CN3CC[C@H]2C3)n1 | 0.41 | 9 | 0.046
Cc1nncc(C23CCN(CC2)C3)n1 | 4.1 | 59 | 0.07
Cc1nncc(C23CCCN(CC2)C3)n1 (stereo not given) | 1.8 | 55 | 0.033
